Reference: US10206907B2, “Compounds useful for the treatment of degenerative and inflammatory diseases” (GALAPAGOS NV, priority 2008, dated 2019)

Tests used:
[1] = molecular target: Recombinant human JAK1 catalytic domain (Homo sapiens (Human), UniProt P23458); assay: JAK1 inhibition assay; format: biochemical; settings: semi-quantitative score
Summary of the method: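 IC50 values come from dose-response series, with each point expressed as percent inhibition of cpm. Vehicle sets full activity and 10 μM staurosporine sets background. Incorporated radioactivity counted by scintillation after washing with 75 mM phosphoric acid.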

[2] = molecular target: Recombinant human JAK2 catalytic domain (Homo sapiens (Human), UniProt O60674); assay: JAK2 inhibition assay; format: biochemical; settings: semi-quantitative score
Chain of Recombinant human JAK2 catalytic domain (O60674 808-1132): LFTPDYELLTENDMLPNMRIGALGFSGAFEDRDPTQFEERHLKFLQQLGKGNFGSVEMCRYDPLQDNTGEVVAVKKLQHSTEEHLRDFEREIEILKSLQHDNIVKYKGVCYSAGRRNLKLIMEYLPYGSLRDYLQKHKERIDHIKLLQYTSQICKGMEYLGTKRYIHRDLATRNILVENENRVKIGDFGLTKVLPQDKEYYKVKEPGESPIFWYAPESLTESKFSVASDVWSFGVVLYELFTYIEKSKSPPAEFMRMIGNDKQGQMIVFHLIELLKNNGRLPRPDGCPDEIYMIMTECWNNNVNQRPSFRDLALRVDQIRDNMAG
Summary of the method: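 Activity was taken as vehicle cpm minus cpm with 10 μM staurosporine, and inhibition was expressed on that scale. Incubation was 90 min at 30 °C, followed by acid quench, phosphoric acid washes and Microscint counting. Compounds were tested as dose series to obtain IC50.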

[3] = molecular target: Recombinant human JAK3 catalytic domain (Homo sapiens (Human), UniProt P52333); assay: JAK3 inhibition assay; format: biochemical; settings: semi-quantitative score
Chain of Recombinant human JAK3 catalytic domain (P52333 781-1124): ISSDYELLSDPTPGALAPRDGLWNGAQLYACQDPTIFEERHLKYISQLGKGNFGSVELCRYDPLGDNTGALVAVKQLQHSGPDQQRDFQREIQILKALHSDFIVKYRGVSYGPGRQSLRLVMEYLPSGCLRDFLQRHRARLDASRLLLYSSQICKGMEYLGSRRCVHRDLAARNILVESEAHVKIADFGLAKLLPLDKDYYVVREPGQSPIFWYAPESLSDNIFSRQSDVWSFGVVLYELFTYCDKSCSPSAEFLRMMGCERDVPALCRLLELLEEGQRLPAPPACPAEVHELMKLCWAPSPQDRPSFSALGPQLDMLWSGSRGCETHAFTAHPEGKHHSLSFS

[4] = molecular target: Recombinant human TYK2 catalytic domain (Homo sapiens (Human), UniProt P29597); assay: TYK2 inhibition assay; format: biochemical; settings: semi-quantitative score
Chain of Recombinant human TYK2 catalytic domain (P29597 871-1187): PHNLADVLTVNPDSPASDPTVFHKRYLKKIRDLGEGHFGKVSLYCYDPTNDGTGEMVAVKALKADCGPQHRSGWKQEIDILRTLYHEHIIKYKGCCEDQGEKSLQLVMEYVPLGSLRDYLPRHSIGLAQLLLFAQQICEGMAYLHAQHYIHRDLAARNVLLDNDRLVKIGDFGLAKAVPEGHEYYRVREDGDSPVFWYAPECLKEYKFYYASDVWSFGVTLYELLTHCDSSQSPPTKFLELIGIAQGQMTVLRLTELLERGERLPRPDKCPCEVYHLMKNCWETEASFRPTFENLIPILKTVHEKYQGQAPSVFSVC
Description: After 90 min at 30° C., reactions were stopped by adding of 25 μL/well of 150 mM phosphoric acid. […] Plates were washed 6 times with 300 μL per well of a 75 mM phosphoric acid solution and the bottom of the plates was sealed. 40 μL/well of Microscint-20 was added, the top of the plates was sealed and readout was performed using the Topcount (Perkin Elmer). Kinase activity was calculated by subtracting counts per minute (cpm) obtained in the presence of a positive control inhibitor (10 μM staurosporine) from cpm obtained in the presence of vehicle. The ability of a test compound to inhibit this activity was determined as: Percentage inhibition=((cpm determined for sample with test compound present−cpm determined for sample with positive control inhibitor) divided by (cpm determined in the presence of vehicle−cpm determined for sample with positive control inhibitor))*100%.
Dose dilution series were prepared for the compounds enabling the testing of dose-response effects in the TYK2 assay and the calculation of the IC50 for each compound.

[5] = test system: JAK-STAT signalling in HeLa cells; assay: JAK-STAT signalling assay (OSM-triggered pSTAT1(2)-luciferase reporter in HeLa cells); format: cell-based; settings: Homo sapiens; HeLa cells, OSM-triggered pSTAT1(2)-luciferase reporter; read-out: STAT signalling EC50
Summary of the method: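 Read-out is oncostatin M–driven pSTAT1(2)-luciferase activity, corrected by co-transfected LacZ β-galactosidase, in transiently transfected HeLa cells cultured overnight at 37 °C, 10% CO2. Inhibition percentages against positive and negative controls were plotted across doses to derive EC50.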

MMP13 in SW1353 cells = assay: OSM/IL-1β signaling assay (MMP13 levels in SW1353 cells); format: cell-based; settings: Homo sapiens; SW1353 cells, OSM and IL-1β triggered, MMP13 levels 48 hours after triggering; read-out: MMP13 EC50;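 note: secreted MMP13 captured by antibody, activated with APMA and its activity read by fluorescence, inhibition scaled between vehicle-treated triggered wells (0%) and untriggered wells (100%)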
[6] = Microsomal stability, human liver microsomes; format: in vitro ADME; settings: percentage of compound remaining after 60 minutes, 3 μM compound
Summary of the method: (§1)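 Percent parent remaining after 60 min was determined by LCMS against a time-zero sample quenched before microsome addition. Incubations ran at 37°C with liver microsomes and a G6PDH-based NADPH-regenerating cofactor mix. Quench was MeOH or ACN (1:1).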

[7] = Microsomal stability, rat liver microsomes; format: in vitro ADME; settings: percentage of compound remaining after 60 minutes, 3 μM compound
Summary of the method: as §1

[8] = Caco2 permeability (bi-directional); format: in vitro ADME, human; settings: human, pH 7.4; for Papp A→B at 1 h, 10 µM: Caco-2, apical to basolateral, read-out: Papp (A2B); for efflux ratio at 1 h, 10 µM: Caco-2, ratio of PappB>A/PappA>B
Summary of the method: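 Compound concentrations in both chambers were measured by LC-MS/MS after 1 h incubation at 37 °C on an orbital shaker. Efflux ratio is PappB>A over PappA>B. Lucifer Yellow (50 μM in donor) confirmed layer integrity, with permeability of ≤100 nm/s required.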

Chain of Recombinant human JAK1 catalytic domain (P23458 850-1154): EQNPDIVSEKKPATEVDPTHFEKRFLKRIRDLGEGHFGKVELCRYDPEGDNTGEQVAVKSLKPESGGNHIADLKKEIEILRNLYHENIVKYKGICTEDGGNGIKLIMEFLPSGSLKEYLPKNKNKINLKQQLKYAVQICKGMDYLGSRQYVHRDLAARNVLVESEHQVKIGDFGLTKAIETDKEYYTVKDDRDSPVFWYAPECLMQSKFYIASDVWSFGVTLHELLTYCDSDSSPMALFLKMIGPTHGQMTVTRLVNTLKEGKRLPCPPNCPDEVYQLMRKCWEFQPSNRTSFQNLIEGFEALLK

Row | SMILES | IC50 [1] [nM] | IC50 [2] [nM] | IC50 [3] [nM] | IC50 [4] [nM] | EC50 [5] [nM] | EC50 (MMP13 in SW1353 cells) [nM] | Microsomal Stability Human (%) [6] | Microsomal Stability Rat (%) [7] | Papp A→B at 1 h, 10 µM [8] [×10⁻⁶ cm/s] | efflux ratio at 1 h, 10 µM [8]
1 | CN1CCN(c2ccc(-c3cccc4nc(NC(=O)C5CC5)nn34)cc2)CC1 [Compound 1, N-(5-(4-(4-methylpiperazin-1-yl)phenyl)-[1,2,4]triazolo[1,5-a]pyridin-2-yl)cyclopropanecarboxamide] | 101 to 500 | 501 to 1000 | > 1000 | > 1000 |  |  |  |  |  | 
2 | O=C(Nc1nc2cccc(-c3ccc(NS(=O)(=O)c4ccc(F)cc4)cc3)n2n1)C1CC1 [Compound 33, N-(5-(4-(4-fluorophenylsulfonamido)phenyl)-[1,2,4]triazolo[1,5-a]pyridin-2-yl)cyclopropanecarboxamide] | < 100 | < 100 | > 1000 | 101 to 500 | > 1000 | > 1000 | **** (**** 76-100) | ** (** 26-50) |  | 
3 | O=C(Nc1nc2cccc(-c3ccc(OCC4CCC4)cc3)n2n1)C1CC1 [Compound 39, N-(5-(4-(cyclobutylmethoxy)phenyl)-[1,2,4]triazolo[1,5-a]pyridin-2-yl)cyclopropanecarboxamide] | < 100 | < 100 | > 1000 | > 1000 | > 1000 | > 1000 | ** (** 26-50) | ** (** 26-50) |  | 
4 | O=C(Nc1nc2cccc(-c3ccc(OCC4CCCCC4)cc3)n2n1)C1CC1 [Compound 41, N-(5-(4-(cyclohexylmethoxy)phenyl)-[1,2,4]triazolo[1,5-a]pyridin-2-yl)cyclopropanecarboxamide] | < 100 | 101 to 500 |  | > 1000 | 501 to 1000 | 501 to 1000 | ** (** 26-50) | ** (** 26-50) |  | 
5 | O=C(Nc1ccccc1)c1ccc(-c2cccc3nc(NC(=O)C4CC4)nn23)cc1 [Compound 43, 4-(2-(cyclopropanecarboxamido)-[1,2,4]triazolo[1,5-a]pyridin-5-yl)-N-phenylbenzamide] | 101 to 500 |  | > 1000 | > 1000 |  |  | **** (**** 76-100) | **** (**** 76-100) |  | 
6 | O=C(Nc1nc2cccc(-c3ccc(Oc4ccccc4)cc3)n2n1)C1CC1 [Compound 46, N-(5-(4-phenoxyphenyl)-[1,2,4]triazolo[1,5-a]pyridin-2-yl)cyclopropanecarboxamide] | < 100 | 101 to 500 | > 1000 | > 1000 | > 1000 | > 1000 | * (* 0-25) | * (* 0-25) |  | 
7 | Cc1noc(C)c1COc1ccc(-c2cccc3nc(NC(=O)C4CC4)nn23)cc1 [Compound 49, N-(5-(4-((3,5-dimethylisoxazol-4-yl)methoxy)phenyl)-[1,2,4]triazolo[1,5-a]pyridin-2-yl)cyclopropanecarboxamide] | < 100 | 101 to 500 | > 1000 | > 1000 | > 1000 | > 1000 | * (* 0-25) | * (* 0-25) |  | 
8 | Cc1cc(COc2ccc(-c3cccc4nc(NC(=O)C5CC5)nn34)cc2)n(C)n1 [Compound 50] | < 100 | < 100 | 101 to 500 | > 1000 | > 1000 | > 1000 | ** (** 26-50) | * (* 0-25) |  | 
9 | O=C(Nc1nc2cccc(-c3ccc(NS(=O)(=O)c4ccccc4F)cc3)n2n1)C1CC1 [Compound 54, N-(5-(4-(2-fluorophenylsulfonamido)phenyl)-[1,2,4]triazolo[1,5-a]pyridin-2-yl)cyclopropanecarboxamide] | < 100 | < 100 | > 1000 | 101 to 500 | > 1000 | > 1000 | **** (**** 76-100) | *** (*** 51-75) |  | 
10 | O=C(Nc1nc2cccc(-c3ccc(-c4cccnc4)cc3)n2n1)C1CC1 [Compound 66, N-(5-(4-(pyridin-3-yl)phenyl)-[1,2,4]triazolo[1,5-a]pyridin-2-yl)cyclopropanecarboxamide] | < 100 | 101 to 500 |  | 501 to 1000 | > 1000 | > 1000 | **** (**** 76-100) | * (* 0-25) |  | 
11 | O=C(Nc1nc2cccc(-c3cnn(Cc4ccccc4)c3)n2n1)C1CC1 [Compound 107, N-(5-(1-benzyl-1H-pyrazol-4-yl)-[1,2,4]triazolo[1,5-a]pyridin-2-yl)cyclopropanecarboxamide] | < 100 | < 100 | > 1000 |  | > 1000 | > 1000 | * (* 0-25) | * (* 0-25) | 24.1 | 1.05
12 | O=C(CCOc1ccccc1)Nc1ccc(-c2cccc3nc(NC(=O)C4CC4)nn23)cc1 [Compound 108] | < 100 | < 100 | > 1000 |  | 501 to 1000 | 501 to 1000 | * (* 0-25) | * (* 0-25) | 27.7 | 1.4
13 | O=C(Nc1nc2cccc(-c3ccc(CN4CCC(F)(F)CC4)cc3)n2n1)C1CC1 [Compound 234, Cyclopropanecarboxylic acid {5-[4-(4,4-difluoro-piperidin-1-ylmethyl)-phenyl]-[1,2,4]triazolo[1,5-a]pyridin-2-yl}-amide] | < 100 | < 100 | 101 to 500 |  | 501 to 1000 | 1 to 500 | ** (** 26-50) | ** (** 26-50) | 36.5 | 0.9
14 | O=C(Nc1nc2cccc(-c3ccc(CN4CCC(C(F)(F)F)CC4)cc3)n2n1)C1CC1 [Compound 240, Cyclopropanecarboxylic acid {5-[4-(4-trifluoromethyl-piperidin-1-ylmethyl)-phenyl]-[1,2,4]triazolo[1,5-a]pyridin-2-yl}-amide] | < 100 | < 100 | 501 to 1000 |  | 101 to 500 | > 1000 | ** (** 26-50) | *** (*** 51-75) | 29.6 | 1.3
